{
  "source": "patent US11300570B2",
  "about": "“Therapeutic and diagnostic methods for cancer” (Genentech, Inc., priority 2016, dated 2022)",
  "key": {"[1]": {"tested_on": "metastatic urothelial carcinoma (mUC)", "assay": "IMvigor210 study of atezolizumab in metastatic urothelial carcinoma, efficacy by tTMB", "type": "in vivo, human", "protocol": "To evaluate this idea, the association between tTMB and response to atezolizumab was evaluated in several distinct cancer types. As described in Example 2, high tTMB was associated with response to atezolizumab in 1 L and 2 L+ NSCLC, including at tTMB cutoffs of ≥16 mut/Mb and ≥20 mut/Mb. […] Tissue TMB was associated with improved ORR in 1 L and 2 L mUC patients at the ≥16 mut/Mb and ≥20 mut/Mb cutoffs in the IMvigor210 study (FIG. 17)."}, "[2]": {"tested_on": "locally advanced or metastatic NSCLC (PD-L1-selected patients)", "assay": "BIRCH and FIR Phase II single-arm trials of atezolizumab monotherapy in PD-L1-selected NSCLC, efficacy by tTMB", "type": "in vivo, human", "conditions": "for Median OS / Median PFS: 1L BIRCH/FIR; for ORR / Odds Ratio for Response / OS HR (95% CI) / PFS HR (95% CI): BIRCH and FIR 2L+; for Odds Ratio for Response / OS HR (95% CI) / PFS HR (95% CI): TMB-high vs TMB-low; for OS HR (95% CI) / PFS HR (95% CI): unadjusted, unstratified", "protocol": "The correlation between the level of somatic mutations detected in a tumor tissue sample (e.g., mutation load, also referred to as tissue tumor mutational burden (tTMB)) and PD-L1 expression and their independent contribution to treatment with PD-L1 axis binding antagonists in non-small cell lung cancer (NSCLC) tumors was evaluated.\nPre-treatment tumor specimens from 465 patients with 2 L+ NSCLC who were enrolled in one of the three Phase II clinical trials (BIRCH, FIR, and POPLAR; Table 4 and 5), in which atezolizumab was administered as a monotherapy, were evaluated for tissue tumor mutational burden (tTMB). Tumor specimens from 1 L NSCLC patients were also evaluated in the BIRCH and FIR studies.\nThe efficacy analyses of the BIRCH population excluded these two untreated patients. Patients were eligible for enrollment in the BIRCH study if they had locally advanced or metastatic (e.g., stage IIIB, stage IV, or recurrent) NSCLC; a PD-L1-positive tumor status determined by an immunohistochemistry (IHC) assay based on PD-L1 expression in tumor infiltrating immune cells (IC) and/or tumor cells (TC); measurable disease, as defined by RECIST v1.1; and an Eastern Cooperative Oncology Group (ECOG) performance status of 0 or 1. Patients received atezolizumab at a dose of 1200 mg intravenously every three weeks for as long as patients were experiencing clinical benefit, i.e., in the absence of unacceptable toxicity or symptomatic deterioration attributed to disease progression.\nThe FIR (Clinical Trial ID No.: NCT01846416) patient population evaluated for tTMB consisted of 33 patients. Patients were eligible for enrollment in the FIR study if they had stage IIIB (e.g., not eligible for treatment by definitive chemoradiotherapy), stage IV, or recurrent NSCLC; a PD-L1-positive status as determined by an IHC assay; an ECOG performance status of 0 or 1; a life expectancy 12 weeks; measurable disease, as defined by RECIST v1.1; and adequate hematologic and end organ function. Patients received an intravenous dose of 1200 mg atezolizumab on Day 1 of each 21-day cycle until disease progression.\nData from the single-arm, PD-L1-selected trials BIRCH and FIR were combined and analyzed to examine the association between tTMB and clinical outcomes among PD-L1-selected patients. Data from the randomized, PD-L1-unselected trial, POPLAR, were analyzed separately and treatment effects between the atezolizumab- and docetaxel-treatment arms were compared.\nTo identify somatic mutations, tumor samples (e.g., archival tumor samples) were processed as described in Frampton et al. Nat. Biotechnol. 31:1023-31, 2013. Sequencing libraries were constructed to sequence and analyze samples. In addition to standard mutation processing, a mutation load estimation algorithm was applied that, based on the number of somatic mutations and/or rearrangements detected in Table 1 or Table 2, respectively, extrapolates to the exome or the genome as a whole. For purposes of mutation load estimation, all coding short variant alterations, base substitutions, and indels detected in the genes listed in Table 1 and Table 2 were counted. Further, all coding alterations (base substitutions and indels), including synonymous alterations, with the exception of known oncogenic driver mutations, in the genes listed in Table 1 and Table 2 were counted. […]"}, "[3]": {"conditions": "BEP (evaluable for TMB) (n = 102)"}},
  "data": [
    {"substance": "atezolizumab", "values": [
      {"measurement": "association of increased tTMB with ORR, PFS and OS", "setting": "[1]; 1L cisplatin-ineligible mUC, cohort 1 of IMvigor210", "result": "associated with increased ORR (FIG. 15A), longer PFS (FIG. 15B), and longer OS (FIG. 15C)"},
      {"measurement": "association of increased tTMB with ORR, PFS and OS", "setting": "[1]; 2L+ mUC, cohort 2 of IMvigor210", "result": "associated with increased ORR (FIG. 16A), longer PFS (FIG. 16B), and longer OS (FIG. 16C)"},
      {"measurement": "ORR", "setting": "[1]; IMvigor210 1L cisplatin-ineligible and 2L+ mUC, 6 patients both TMB-high (≥16 mut/Mb) and MSI-high", "result": 83, "unit": "%"},
      {"measurement": "Median OS", "setting": "[2]; [3]", "result": 20.1, "unit": "months"},
      {"measurement": "Median PFS", "setting": "[2]; [3]", "result": 7.0, "unit": "months"},
      {"measurement": "Median OS", "setting": "[2]; ITT (n = 173)", "result": 20.1, "unit": "months"},
      {"measurement": "Median PFS", "setting": "[2]; ITT (n = 173)", "result": 6.9, "unit": "months"},
      {"measurement": "Median PFS", "setting": "[2]; tTMB score <9 mut/Mb (n = 45)", "result": 4, "unit": "months"},
      {"measurement": "Median OS", "setting": "[2]; tTMB score <16 mut/Mb (n = 85)", "result": 20.1, "unit": "months"},
      {"measurement": "Median PFS", "setting": "[2]; tTMB score <16 mut/Mb (n = 85)", "result": 6, "unit": "months"},
      {"measurement": "Median OS", "setting": "[2]; tTMB score ≥9 mut/Mb (n = 57)", "result": 20.1, "unit": "months"},
      {"measurement": "Median PFS", "setting": "[2]; tTMB score ≥9 mut/Mb (n = 57)", "result": 8.3, "unit": "months"},
      {"measurement": "Median PFS", "setting": "[2]; tTMB score ≥16 mut/Mb (n = 17)", "result": 11.1, "unit": "months"},
      {"measurement": "ORR", "setting": "[2]; TMB-high (at or above 25% tTMB quantile cutoff)", "result": 22, "unit": "%"},
      {"measurement": "ORR", "setting": "[2]; TMB-high (at or above 50% (median) tTMB cutoff)", "result": 25, "unit": "%"},
      {"measurement": "ORR", "setting": "[2]; TMB-high (at or above 75% tTMB quantile cutoff)", "result": 29, "unit": "%"},
      {"measurement": "Odds Ratio for Response", "setting": "[2]; 25% tTMB cutoff", "result": 2.14},
      {"measurement": "OS HR (95% CI)", "setting": "[2]; 25% tTMB cutoff", "result": "0.92 (0.64, 1.30)"},
      {"measurement": "PFS HR (95% CI)", "setting": "[2]; 25% tTMB cutoff", "result": "0.79 (0.60, 1.00)"},
      {"measurement": "Odds Ratio for Response", "setting": "[2]; 50% (median) tTMB cutoff", "result": 2.11},
      {"measurement": "OS HR (95% CI)", "setting": "[2]; 50% (median) tTMB cutoff", "result": "0.87 (0.65, 1.16)"},
      {"measurement": "PFS HR (95% CI)", "setting": "[2]; 50% (median) tTMB cutoff", "result": "0.64 (0.50, 0.80)"},
      {"measurement": "Odds Ratio for Response", "setting": "[2]; 75% tTMB cutoff", "result": 2.20},
      {"measurement": "OS HR (95% CI)", "setting": "[2]; 75% tTMB cutoff", "result": "0.70 (0.49, 1.00)"},
      {"measurement": "PFS HR (95% CI)", "setting": "[2]; 75% tTMB cutoff", "result": "0.5 (0.38, 0.67)"},
      {"measurement": "ORR", "setting": "[2]; TMB-low (below 25% tTMB quantile cutoff)", "result": 11, "unit": "%"},
      {"measurement": "ORR", "setting": "[2]; TMB-low (below 50% (median) tTMB cutoff)", "result": 14, "unit": "%"},
      {"measurement": "ORR", "setting": "[2]; TMB-low (below 75% tTMB quantile cutoff)", "result": 16, "unit": "%"},
      {"measurement": "association of tissue TMB with efficacy", "setting": "[2]; PD-L1-selected 2L+ patients with NSCLC, BIRCH and FIR", "result": "associated with improved efficacy"},
      {"measurement": "association of tTMB with efficacy", "setting": "[2]; all lines evaluated (1L and 2L+) in FIR and BIRCH", "result": "associated with improved efficacy"}
    ]}
  ]
}
